Assay results from ChEMBL document CHEMBL1201862, “PubChem BioAssay data set” (2004).
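Five compound concentrations were applied to cells in 96-well plates for 48 hours; endpoints were derived by simple linear interpolation of the resulting dose-response curve. GI50 = concentration required for 50% inhibition of growth.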 Activity calls are given as the source filed them. Cut-off read from the data, not from the text of the source: active = GI50 up to about 1.1 µM and inactive = higher.

Columns and labels:
Test in all cases: NCI-60 cell line screen, 48 h
OVCAR-4 = test system: OVCAR-4
HOP-18 = test system: HOP-18
MOLT-4 = test system: MOLT-4
SF-268 = test system: SF-268
OVCAR-3 = test system: OVCAR-3
SF-539 = test system: SF-539
DLD-1 = test system: DLD-1
LXFL 529 = test system: LXFL 529
SF-295 = test system: SF-295
DU-145 = test system: DU-145
A549 = test system: A549
UACC-257 = test system: UACC-257
U-251 = test system: U-251
NCI-H23 = test system: NCI-H23
DMS-273 = test system: DMS-273
SK-MEL-28 = test system: SK-MEL-28
LOX IMVI = test system: LOX IMVI
IGROV-1 = test system: IGROV-1
MCF7 = test system: MCF7
M14 = test system: M14
SNB-78 = test system: SNB-78
SR = test system: SR
K562 = test system: K562
NCI-H522 = test system: NCI-H522
CCRF-CEM = test system: CCRF-CEM
SK-MEL-5 = test system: SK-MEL-5
UO-31 = test system: UO-31
SN12C = test system: SN12C
Hs-578T = test system: Hs-578T
NCI-H460 = test system: NCI-H460
T47D = test system: T47D
OVCAR-5 = test system: OVCAR-5
RPMI-8226 = test system: RPMI-8226
HCT-15 = test system: HCT-15
SNB-75 = test system: SNB-75
NCI/ADR-RES = test system: NCI/ADR-RES
UACC-62 = test system: UACC-62
HL-60 = test system: HL-60
HCC 2998 = test system: HCC 2998
COLO 205 = test system: COLO 205
HT-29 = test system: HT-29
HCT-116 = test system: HCT-116
SK-MEL-2 = test system: SK-MEL-2
786-0 = test system: 786-0
BT-549 = test system: BT-549
KM12 = test system: KM12
RXF 393 = test system: RXF 393
HOP-92 = test system: HOP-92
A498 = test system: A498
NCI-H226 = test system: NCI-H226
MDA-N = test system: MDA-N
SW-620 = test system: SW-620
M19-MEL = test system: M19-MEL
DMS-114 = test system: DMS-114
SNB-19 = test system: SNB-19
MDA-MB-435 = test system: MDA-MB-435
EKVX = test system: EKVX
PC-3 = test system: PC-3
Malme-3M = test system: Malme-3M
CAKI-1 = test system: CAKI-1
OVCAR-8 = test system: OVCAR-8
KM-20L2 = test system: KM-20L2
HOP-62 = test system: HOP-62
TK-10 = test system: TK-10
XF498 = test system: XF498
ACHN = test system: ACHN
SK-OV-3 = test system: SK-OV-3
RXF 631 = test system: RXF 631

Measured: GI50

COc1ccc2c(c1)c(=O)c1c(NCCCN(C)C)ccc3ncn2c31
inactive: OVCAR-4 1.15 µM | HOP-18 11.2 µM | SF-268 1.31 µM | OVCAR-3 10.4 µM | SF-539 3.93 µM | DLD-1 1.14 µM | LXFL 529 3.41 µM | SF-295 1.47 µM | DU-145 4.66 µM | A549 1.19 µM | UACC-257 12.2 µM | U-251 1.35 µM | NCI-H23 5.87 µM | SK-MEL-28 13.2 µM | LOX IMVI 1.54 µM | IGROV-1 3.5 µM | M14 4.78 µM | SNB-78 7.48 µM | SR 2.19 µM | K562 2.92 µM | CCRF-CEM 1.61 µM | SK-MEL-5 7.67 µM | UO-31 2.62 µM | SN12C 1.72 µM | Hs-578T 10.6 µM | NCI-H460 1.39 µM | T47D 16.3 µM | OVCAR-5 12.3 µM | RPMI-8226 1.29 µM | SNB-75 6.3 µM | UACC-62 11.4 µM | HL-60 4.42 µM | HCC 2998 3.05 µM | COLO 205 2.8 µM | HT-29 1.13 µM | SK-MEL-2 14.2 µM | 786-0 1.68 µM | BT-549 17.6 µM | KM12 1.38 µM | HOP-92 4.13 µM | A498 11.2 µM | NCI-H226 2.9 µM | MDA-N 5.37 µM | M19-MEL 9.08 µM | DMS-114 10.6 µM | SNB-19 3.95 µM | MDA-MB-435 6.05 µM | EKVX 13.8 µM | PC-3 2.65 µM | Malme-3M 11.6 µM | CAKI-1 5.68 µM | KM-20L2 1.12 µM | TK-10 6.1 µM | XF498 5.35 µM | SK-OV-3 8.38 µM
1.44 µM: HCT-15
active: MOLT-4 0.215 µM | DMS-273 1.07 µM | MCF7 0.714 µM | NCI-H522 0.993 µM | NCI/ADR-RES 0.832 µM | HCT-116 0.188 µM | RXF 393 0.366 µM | SW-620 1.01 µM | OVCAR-8 0.495 µM | HOP-62 0.783 µM | ACHN 0.659 µM

Cn1c2c(c3ccccc31)C1C(=O)N(c3ccccc3)C(=O)C1CC2 (stereo unspecified)
inactive: MOLT-4 > 303 µM | SF-268 > 303 µM | OVCAR-3 123 µM | SF-539 > 303 µM | DLD-1 > 303 µM | LXFL 529 > 303 µM | SF-295 > 303 µM | A549 > 303 µM | UACC-257 > 303 µM | RXF 631 > 303 µM | U-251 > 303 µM | NCI-H23 > 303 µM | DMS-273 > 303 µM | SK-MEL-28 > 303 µM | LOX IMVI > 303 µM | IGROV-1 > 303 µM | SR > 303 µM | K562 > 303 µM | NCI-H522 243 µM | CCRF-CEM > 303 µM | SK-MEL-5 > 303 µM | SN12C > 303 µM | NCI-H460 > 303 µM | RPMI-8226 > 303 µM | UACC-62 > 303 µM | HL-60 > 303 µM | HCC 2998 > 303 µM | COLO 205 > 303 µM | HT-29 > 303 µM | HCT-116 294 µM | SK-MEL-2 > 303 µM | 786-0 > 303 µM | KM12 > 303 µM | RXF 393 > 303 µM | HOP-92 > 303 µM | NCI-H226 85.5 µM | SW-620 > 303 µM | DMS-114 > 303 µM | SNB-19 111 µM | EKVX > 303 µM | Malme-3M > 303 µM | CAKI-1 > 303 µM | OVCAR-8 > 303 µM | KM-20L2 > 303 µM | HOP-62 > 303 µM | TK-10 > 303 µM | ACHN > 303 µM | SK-OV-3 > 303 µM
> 303 µM: HCT-15
